Laboratory results from ChEMBL document CHEMBL6134767, “Advances in antibacterial agents for Mycobacterium fortuitum” (2025).
≈ marks a conversion by molar mass, not a printed value. Where a name gives a salt, the structure may show the parent alone.

The compounds below were run on Mycolicibacterium fortuitum (assay: Antimycobacterial activity against Mycobacterium fortuitum ATCC 6841).
Type: functional

| Compound | MIC |
| --- | --- |
| CCN(CC)C(=S)Sc1ncc([N+](=O)[O-])cc1C#N | 1.35 µM (≈ 0.4 µg/mL) |
| N#Cc1cc([N+](=O)[O-])cnc1SC(=S)N1CCCCC1 | 5.05 µM (≈ 1.56 µg/mL) |
| NC(=O)c1cc([N+](=O)[O-])cc([N+](=O)[O-])c1SC(=S)N1CCCC1 | 17.5 µM (≈ 6.25 µg/mL) |
| N#Cc1cc([N+](=O)[O-])cnc1SC(=S)N1CCCCCC1 | 2.48 µM (≈ 0.8 µg/mL) |
| COc1ncnc(SC(=S)N2CCCC2)c1[N+](=O)[O-] | 5.19 µM (≈ 1.56 µg/mL) |
| OCCCCCCCCN=C=S | 21.4 µM (≈ 4 µg/mL) |
| c1ccc2c(c1)[I+]c1ccccc1-2 [DIPHENYLENEIODONIUM CHLORIDE] | 0.4 µM |
| O=c1nc(N2CCN(CC3CCCCC3)CC2)sc2c([N+](=O)[O-])cc(C(F)(F)F)cc12 [MACOZINONE] | 0.022 µM (≈ 0.01 µg/mL) |
| CN(C)c1ncnc(SC(=S)N2CCCC2)c1[N+](=O)[O-] | 4.98 µM (≈ 1.56 µg/mL) |
| N#Cc1cc([N+](=O)[O-])cnc1SC(=S)N1CCCC1 | 5.3 µM (≈ 1.56 µg/mL) |

Other lines, results leading:

| MIC | Compound |
| --- | --- |
| 48.8 µM (≈ 12.5 µg/mL) | CC(C)(O)c1cc2c(o1)C(=O)c1ccccc1C2=O [AVICEQUINONE C] |
| 0.13 µM (≈ 0.0315 µg/mL) | CC1(C)CCC2=C(O1)c1ccccc1C(=O)C2=O [LAPACHONE] |
| 45.6 µM (≈ 12.5 µg/mL) | CC(C)(O)[C@@H]1OC2=C(C(=O)c3ccccc3C2=O)[C@H]1O |
| 0.15 µM (≈ 0.0487 µg/mL) | C/C=C/c1cc(OC)c2oc(-c3ccc(O)c(OC)c3)c(C)c2c1 |
| 0.12 µM (≈ 0.0392 µg/mL) | C/C=C/c1cc(OC)c2c(c1)[C@@H](C)[C@H](c1ccc(O)c(OC)c1)O2 [LICARINE A] |
| 0.12 µM (≈ 0.0226 µg/mL) | Cc1cc(O)c2c(c1)C(=O)C=CC2=O [RAMENTACEONE] |

What follows are compounds tested on Mycolicibacterium fortuitum (assay: Antimycobacterial activity against Mycobacterium fortuitum ATCC 35931 assessed as reduction in bacterial growth).
Type: functional

| Compound | MIC |
| --- | --- |
| C[n+]1ccc(-c2c3nc(c(-c4cc[n+](C)cc4)c4ccc([nH]4)c(-c4cc[n+](C)cc4)c4ccc([nH]4)c(-c4cc[n+](C)cc4)c4nc2C=C4)C=C3)cc1 [TMPYP4] | 50 µM |
| CC(C)N(CCOc1ccc(C(c2ccc(Cl)cc2)c2cccs2)cc1)C(C)C (centres undefined) | 29.3 µM (≈ 12.5 µg/mL) |
| Fc1ccc(C(c2ccc(OCCN3CCCC3)cc2)c2cccs2)cc1 (centres undefined) | 8.2 µM (≈ 3.13 µg/mL) |
| Fc1ccc(C(c2ccc(OCCN3CCCCCC3)cc2)c2cccs2)cc1 (centres undefined) | 3.81 µM (≈ 1.56 µg/mL) |
| CCN(CC)CCCCOc1cc2oc3cc(OCCCCN(CC)CC)c(OC)c(CC=C(C)C)c3c(=O)c2c(OCCCCN(CC)CC)c1CC=C(C)C | 15.8 µM (≈ 12.5 µg/mL) |
| Clc1ccc(C(c2ccc(OCCN3CCCCC3)cc2)c2cccs2)cc1 (centres undefined) | 3.79 µM (≈ 1.56 µg/mL) |
| O=S(=O)(O)c1ccc(-c2c3nc(c(-c4ccc(S(=O)(=O)O)cc4)c4ccc([nH]4)c(-c4ccc(S(=O)(=O)O)cc4)c4nc(c(-c5ccc(S(=O)(=O)O)cc5)c5ccc2[nH]5)C=C4)C=C3)cc1 | 100 µM (≈ 93.5 µg/mL) |
| CCN(CC)CCOc1ccc(C(c2ccc(F)cc2)c2cccs2)cc1 (centres undefined) | 16.3 µM (≈ 6.25 µg/mL) |
| CC(C)N(CCOc1ccc(C(c2ccc(F)cc2)c2cccs2)cc1)C(C)C (centres undefined) | 15.2 µM (≈ 6.26 µg/mL) |
| Fc1ccc(C(c2ccc(OCCN3CCCCC3)cc2)c2cccs2)cc1 (centres undefined) | 7.9 µM (≈ 3.12 µg/mL) |

Results, then the compound that gave them:

| MIC | Compound |
| --- | --- |
| 92.5 µM (≈ 25 µg/mL) | COc1cc(OC)c2c(ccc3cc(O)c(O)cc32)c1 |
| 0.12 µM (≈ 0.0497 µg/mL) | CC(=O)c1ccc2c3c4c(c(O)cc(C)c4c(O)c2c1O)C(=O)c1c(O)cc(C)cc1-3 |
| 0.15 µM (≈ 0.0516 µg/mL) | CC(=O)c1c(O)c(C)c(O)c2c1OC1=CC(=O)C(C(C)=O)C(=O)C12C (centres undefined) |
| 7.67 µM (≈ 3.13 µg/mL) | COc1cccc(C(c2ccc(OCCN3CCCCC3)cc2)c2cccs2)c1 (centres undefined) |
| 7.67 µM (≈ 3.13 µg/mL) | COc1ccc(C(c2ccc(OCCN3CCCCC3)cc2)c2cccs2)cc1 (centres undefined) |
| 25.3 µM (≈ 8 µg/mL) | CC(=O)OCC1=CCc2c(cc(O)c3c(=O)cc(C)oc23)OC1 |

Each compound was assayed on Mycolicibacterium fortuitum (assay: Antimycobacterial activity against Mycobacterium fortuitum NCTC 10394 assessed as reduction in microbial growth incubated for 72 hrs by resazurin dye based broth microdilution method).
Type: functional

| Compound | MIC |
| --- | --- |
| CC(C)CCn1cc(NC(=O)c2ccc3[nH]c(C(=O)Nc4cc(C(=O)Nc5ccc(C(=O)NCCN(C)C)n5C)n(CCC(C)C)c4)cc3c2)cc1C(=O)Nc1cc(C(=O)NCCN(C)C)n(C)c1 | 5.2 µM |
| C[C@@H]([C@H](NC(=O)[C@H](CC1CCCCC1)NC(=O)N[C@@H](Cc1c[nH]c2ccccc12)C(=O)NCC(C)(C)C)C(=O)NC[C@H]1C[C@@H](O)[C@H](n2ccc(=O)[nH]c2=O)O1)N(C)C(=O)CN | 1 µM |
| C[C@@H]([C@H](NC(=O)[C@H](Cc1ccc2ccccc2c1)NC(=O)N[C@@H](Cc1c[nH]c2ccccc12)C(=O)NCC(C)(C)C)C(=O)NC[C@H]1C[C@@H](O)[C@H](n2ccc(=O)[nH]c2=O)O1)N(C)C(=O)CN | 1 µM |

Other lines, results leading:

| MIC | Compound |
| --- | --- |
| 72.7 µM | O=c1ccc2nccc3c4ccccc4n1c23 [CANTHIN-6-ONE] |
| 67.7 µM | O=c1ccc2nccc3c4cccc(O)c4n1c23 |
| 59.5 µM | C[n+]1c2ccccc2cc2[n-]c3ccccc3c21 [CRYPTOLEPINE HYDROCHLORIDE] |

Each compound was assayed on Mycolicibacterium fortuitum (assay: Antibacterial activity against Mycobacterium fortuitum).
Type: functional

| Compound | MIC |
| --- | --- |
| CC(=O)O[C@@H]1[C@@H](O)[C@@H](O)[C@H](OC[C@]2(C)[C@@H](O)C[C@H](O)[C@]3(C)[C@H]4CC=C5[C@@H]6C[C@](C)(C(=O)O)CC[C@]6(C)CC[C@@]5(C)[C@]4(C)CC[C@@H]23)O[C@H]1C | 29.3 µM (≈ 19.8 µg/mL) |
| Cc1c(Cc2ccc(N3CCNCC3)cc2C(F)(F)F)cc(-c2ccc(Cl)cc2)n1-c1ccc(Cl)cc1 | 7.35 µM (≈ 4 µg/mL) |
| O=C1C(=S)N(c2ccccc2)c2ccccc21 | 63 µM (≈ 15.1 µg/mL) |
| CCCCN1C(=S)C(=O)c2ccccc21 | 32 µM (≈ 7.02 µg/mL) |
| CC(=O)O[C@@H]1[C@@H](OC(C)=O)[C@@H](O)[C@H](OC[C@]2(C)[C@@H](O)C[C@H](O)[C@]3(C)[C@H]4CC=C5[C@@H]6C[C@](C)(C(=O)O[C@@H]7O[C@@H](C)[C@H](O)[C@@H](O)[C@H]7O)CC[C@]6(C)CC[C@@]5(C)[C@]4(C)CC[C@@H]23)O[C@H]1C | 27.9 µM (≈ 24.2 µg/mL) |
| Cc1c(Cc2ccc(N3CCNCC3)cn2)cc(-c2ccc(Cl)cc2)n1-c1ccc(Cl)cc1 | 16.8 µM (≈ 8.02 µg/mL) |
| OCCCCCCCCN=C=S | 20 µM (≈ 3.74 µg/mL) |
| CCOC(=O)/C=C/C(=O)c1ccc(C(C)(C)C)cc1 | 15.4 µM (≈ 4 µg/mL) |
| CC(=O)O[C@@H]1[C@@H](OC(C)=O)[C@@H](O)[C@H](OC[C@]2(C)[C@@H](O)C[C@H](O)[C@]3(C)[C@H]4CC=C5[C@@H]6C[C@](C)(C(=O)O)CC[C@]6(C)CC[C@@]5(C)[C@]4(C)CC[C@@H]23)O[C@H]1C | 17.1 µM (≈ 12.3 µg/mL) |
| CCOC(=O)/C=C\C(=O)c1ccc(C(C)(C)C)cc1 | 30.7 µM (≈ 8 µg/mL) |
| CC1(C)[C@@H](O)C[C@H](O)[C@]2(C)[C@H]3CC=C4[C@@H]5C[C@](C)(C(=O)O)CC[C@]5(C)CC[C@@]4(C)[C@]3(C)CC[C@@H]12 | 3.2 µM (≈ 1.51 µg/mL) |
| CN1C(=S)C(=O)c2ccccc21 | 63 µM (≈ 11.2 µg/mL) |
| N=C(N)N1N=C(/C=C/c2ccc(Cl)cc2)CC1c1ccc(Cl)cc1 (centres undefined) | 0.43 µM (≈ 0.154 µg/mL) |
| N=C(N)N1N=C(/C=C/c2ccccc2)CC1c1ccccc1 (centres undefined) | 0.54 µM (≈ 0.157 µg/mL) |

More lines, now with the values ahead:

| MIC | Compound |
| --- | --- |
| 61.5 µM (≈ 16 µg/mL) | CCOC(=O)/C=C/C(=O)c1cc2ccccc2s1 |
| 19.2 µM (≈ 8 µg/mL) | Nc1ccc(-c2nc3cc(-c4ccc5[nH]c(-c6ccc(N)cc6)nc5c4)ccc3[nH]2)cc1 |
| 0.44 µM (≈ 0.154 µg/mL) | COc1ccc(/C=C/C2=NN(C(=N)N)C(c3ccc(OC)cc3)C2)cc1 (centres undefined) |
| 56.7 µM (≈ 16 µg/mL) | COc1cc(O)cc(/C=C/c2cc3ccccc3s2)c1 |
| 0.49 µM (≈ 0.156 µg/mL) | Cc1ccccc1/C=C/C1=NN(C(=N)N)C(c2ccccc2C)C1 (centres undefined) |
| 39.7 µM (≈ 12.5 µg/mL) | C[C@H](NC(=O)c1cc([N+](=O)[O-])cc([N+](=O)[O-])c1)c1ccccc1 |
| > 10.3 µM | C[C@H](OC(=O)c1cc([N+](=O)[O-])cc([N+](=O)[O-])c1)c1ccccc1 |
| 15.8 µM (≈ 8.02 µg/mL) | COc1cc(Cc2cc(-c3ccc(Cl)cc3)n(-c3ccc(Cl)cc3)c2C)ccc1N1CCNCC1 |
| 5.31 µM (≈ 2.5 µg/mL) | COc1cc(/C=C/C2=NN(C(=N)N)C(c3cc(OC)c(OC)c(OC)c3)C2)cc(OC)c1OC (centres undefined) |
| 0.89 µM (≈ 0.312 µg/mL) | COc1ccccc1/C=C/C1=NN(C(=N)N)C(c2ccccc2OC)C1 (centres undefined) |
| 4.94 µM (≈ 1.56 µg/mL) | C[C@@H](OC(=O)c1cc([N+](=O)[O-])cc([N+](=O)[O-])c1)c1ccccc1 |
| 1.27 µM (≈ 0.4 µg/mL) | C[C@@H](NC(=O)c1cc([N+](=O)[O-])cc([N+](=O)[O-])c1)c1ccccc1 |
